# Measured values published in publication PMC6272893, “NO-Releasing Enmein-Type Diterpenoid Derivatives with Selective Antiproliferative Activity and Effects on Apoptosis-Related Proteins” (Molecules, 2016).
# Where two headings read alike, the source gives them in different places.
# Assays:
# [1] = system: Bel-7402 cells; test: MTT antiproliferative assay, Bel-7402; assay type: cell-based, human; details: Homo sapiens, Bel-7402; MTT, 72 h, mean ± S.D. of three experiments
# Description: [The source words this procedure for another cell line and reports this cell line under the same test.] (§1) Cytotoxicity assay in vitro was employed by the MTT assay following the methodology described previously, which was performed in flat-bottomed 96-well plates. In short, exponentially growing MGC-803 cells at the log phase were added to each well at a density of 5 × 10^3 per well, then treated with serial dilutions of the compounds in three replicates at various concentrations (0.039–40 µg/mL). After 72 h, 20 µL of MTT solution (5 mg/mL) per well was added to each cultured medium. Then, DMSO was added to each well (150 µL/well). After 10 min at room temperature, the absorbance (OD) was read on a microplate reader at the wavelength of 490 nm (BIO-RAD Instruments Inc. 550, Hercules, CA, USA). In these experiments, taxol was used as the positive reference with the concentration of 10 µg/mL.
# [2] = system: K562 cells; test: MTT antiproliferative assay, K562; assay type: cell-based, human; details: Homo sapiens, K562; MTT, 72 h, mean ± S.D. of three experiments
# Description: [The source words this procedure for another cell line and reports this cell line under the same test.] as §1
# [3] = system: MGC-803 cells; test: MTT antiproliferative assay, MGC-803; assay type: cell-based, human; details: Homo sapiens, MGC-803; MTT, 72 h, mean ± S.D. of three experiments
# Description: as §1
# [4] = system: CaEs-17 cells; test: MTT antiproliferative assay, CaEs-17; assay type: cell-based, human; details: Homo sapiens, CaEs17; MTT, 72 h, mean ± S.D. of three experiments
# Description: [The source words this procedure for another cell line and reports this cell line under the same test.] as §1
# [5] = system: L-02 normal liver cells; test: MTT antiproliferative assay, L-02; assay type: cell-based; details: for IC50: 72 h, read-out: antiproliferative activity IC50, L-02
# Description: [The source words this procedure for another cell line and reports this cell line under the same test.] as §1
# [6] = MTT, mean ± S.D. of three experiments
Structure (SMILES),IC50 [1] [µM],IC50 [2] [µM],IC50 [3] [µM],IC50 [4] [µM],"IC50 [5, 6] [µM]",IC50 [5] [µM],SI (selectivity index) ([5]; selectivity between tumor and normal liver cells)
O=C(O)CCCC(=O)OCCOc1no[n+]([O-])c1S(=O)(=O)c1ccccc1 [Compound 7b],22.3 ± 1.6,24.2 ± 2.5,22.2 ± 2.5,25.7 ± 1.4,39.6 ± 1.4,,
C=C1C(=O)C23C(=O)OC4CCC(C)(C)C5C(=O)OCC45C2CCC1C3OC(=O)CCCC(=O)OCCCOc1no[n+]([O-])c1S(=O)(=O)c1ccccc1 (centres unmarked) [Compound 10e],1.12 ± 0.09,2.02 ± 0.17,1.91 ± 0.09,4.04 ± 0.23,29.3 ± 0.9,,
O=C(O)CCCC(=O)OCCCCOc1no[n+]([O-])c1S(=O)(=O)c1ccccc1 [Compound 7h],21.3 ± 0.7,24.5 ± 1.4,23.5 ± 1,22.9 ± 1.4,35.4 ± 1.4,,
O=C(O)CCCC(=O)OCCCOc1no[n+]([O-])c1S(=O)(=O)c1ccccc1 [Compound 7e],18.6 ± 0.8,18.5 ± 1.6,20 ± 1.1,18.7 ± 1,36.3 ± 2.1,,
C=C1C(=O)C23C(=O)OC4CCC(C)(C)C5C(=O)OCC45C2CCC1C3OC(=O)c1ccccc1C(=O)OCCOc1no[n+]([O-])c1S(=O)(=O)c1ccccc1 (centres unmarked) [Compound 10c],1.01 ± 0.04,1.97 ± 0.18,1.6 ± 0.15,4.02 ± 0.14,31.2 ± 1.2,,
O=C(O)CCC(=O)OCCCCOc1no[n+]([O-])c1S(=O)(=O)c1ccccc1 [Compound 7g],22.7 ± 1,24 ± 1.4,20.6 ± 1.7,25.7 ± 0.7,39.4 ± 2.6,,
"CC(=O)O[C@H]1C(=O)[C@@]2(C)[C@H]([C@H](OC(=O)c3ccccc3)[C@]3(O)C[C@H](OC(=O)[C@H](O)[C@@H](NC(=O)c4ccccc4)c4ccccc4)C(C)=C1C3(C)C)[C@]1(OC(C)=O)CO[C@@H]1C[C@@H]2O [Taxol, reference compound]",1.89 ± 0.09,0.41 ± 0.02,4.65 ± 0.29,0.43 ± 0.03,3.73 ± 0.17,,
O=C(O)c1ccccc1C(=O)OCCCCOc1no[n+]([O-])c1S(=O)(=O)c1ccccc1 [Compound 7i],22.4 ± 1.6,23 ± 1.2,21.6 ± 1.5,24.8 ± 1.5,37.9 ± 2.8,,
O=C(O)CCC(=O)OCCOc1no[n+]([O-])c1S(=O)(=O)c1ccccc1 [Compound 7a],22 ± 0.8,22.6 ± 2,25.4 ± 1.5,24.3 ± 0.9,37.8 ± 1.3,,
C=C1C(=O)C23C(=O)OC4CCC(C)(C)C5C(=O)OCC45C2CCC1C3OC(=O)CCC(=O)OCCCOc1no[n+]([O-])c1S(=O)(=O)c1ccccc1 (centres unmarked) [Compound 10d],1.17 ± 0.02,2.04 ± 0.1,2.03 ± 0.15,4.84 ± 0.47,27.4 ± 1,,
O=C(O)c1ccccc1C(=O)OCCOc1no[n+]([O-])c1S(=O)(=O)c1ccccc1 [Compound 7c],19.6 ± 1,22.6 ± 1.7,24.6 ± 1.4,23.8 ± 1,41.3 ± 2.9,,
C=C1C(=O)C23C(=O)OC4CCC(C)(C)C5C(=O)OCC45C2CCC1C3OC(=O)CCCC(=O)OCCOc1no[n+]([O-])c1S(=O)(=O)c1ccccc1 (centres unmarked) [Compound 10b],1.75 ± 0.12,2.9 ± 0.17,2.67 ± 0.24,5.56 ± 0.06,22.1 ± 1.3,,

# Continued, in another order:
IC50 [1] [µM],IC50 [2] [µM],IC50 [3] [µM],Structure (SMILES),IC50 [4] [µM],"IC50 [5, 6] [µM]",IC50 [5] [µM],SI (selectivity index) ([5]; selectivity between tumor and normal liver cells)
1.91 ± 0.09,2.86 ± 0.05,2.84 ± 1.12,C=C1C(=O)C23C(=O)OC4CCC(C)(C)C5C(=O)OCC45C2CCC1C3OC(=O)CCC(=O)OCCOc1no[n+]([O-])c1S(=O)(=O)c1ccccc1 (centres unmarked) [Compound 10a],5.68 ± 0.53,24.4 ± 0.8,,
1.85 ± 0.11,2.82 ± 0.22,2.8 ± 0.09,C=C1C(=O)C23C(=O)OC4CCC(C)(C)C5C(=O)OCC45C2CCC1C3OC(=O)CCC(=O)OCCCCOc1no[n+]([O-])c1S(=O)(=O)c1ccccc1 (centres unmarked) [Compound 10g],5.52 ± 0.08,33.9 ± 1.5,,
1.65 ± 0.12,2.78 ± 0.2,2.65 ± 0.16,C=C1C(=O)C23C(=O)OC4CCC(C)(C)C5C(=O)OCC45C2CCC1C3OC(=O)CCCC(=O)OCCCCOc1no[n+]([O-])c1S(=O)(=O)c1ccccc1 (centres unmarked) [Compound 10h],5.48 ± 0.21,29.8 ± 0.9,,
17.8 ± 1.4,17.5 ± 1.4,18.5 ± 0.8,O=C(O)CCC(=O)OCCCOc1no[n+]([O-])c1S(=O)(=O)c1ccccc1 [Compound 7d],19.8 ± 1.3,37.4 ± 0.8,,
1.09 ± 0.09,2.06 ± 0.16,1.64 ± 0.12,C=C1C(=O)C23C(=O)OC4CCC(C)(C)C5C(=O)OCC45C2CCC1C3OC(=O)c1ccccc1C(=O)OCCCCOc1no[n+]([O-])c1S(=O)(=O)c1ccccc1 (centres unmarked) [Compound 10i],4.13 ± 0.29,27.7 ± 1.3,,
16 ± 1.1,2.64 ± 0.19,5.84 ± 0.57,C=C1C(=O)C23C(=O)OC4CCC(C)(C)C5C(=O)OCC45C2CCC1C3O (centres unmarked) [Compound 9],23.7 ± 1.8,,26.4 ± 1.3,
7.48 ± 0.32,4.76 ± 0.32,5.69 ± 0.39,"C=C1C(=O)[C@]23[C@H](O)[C@H]1CC[C@H]2[C@@]12CO[C@]3(O)[C@@H](O)[C@@H]1C(C)(C)CC[C@@H]2O [Compound 1, oridonin, reference compound]",11 ± 1,18.3 ± 0.8,,about 2.4
16.7 ± 0.8,17.5 ± 1,19.3 ± 0.6,O=C(O)c1ccccc1C(=O)OCCCOc1no[n+]([O-])c1S(=O)(=O)c1ccccc1 [Compound 7f],19.2 ± 0.7,35.8 ± 1.3,,
